Reference: the SangsterLogP compilation

Tests used:
[1] = method code SF-RC, from DOI: 10.1002/jps.2600770619, PMID: 3171939; settings: pH 2.0
[2] = method code SF, from DOI: 10.1021/jm00079a001, PMID: 1732531; settings: pH 7.4
[3] = method code SF-AS, from DOI: 10.1016/s0960-894x(99)00527-2, PMID: 10571171; settings: pH 7.0
[4] = not given; remark: listed apart in the source
[5] = method code SF-HPLC, from Huang, H.; YU, D.; Wang, C.; Shi, S.; Shi, J. (2014). Determination of apparent oil/water partition coefficient of spinosin. Yaowu fenxi zazhi, 34(3)497-499.; settings: pH 7.4
[6] = not given; remark: listed apart in the source
[7] = not given; remark: listed apart in the source
[8] = method code SF-AS, from DOI: 10.1248/cpb.25.1350, PMID: 890858; settings: pH 6.5
[9] = not given; remark: listed apart in the source
[10] = not given; remark: listed apart in the source
[11] = method code SF-HPLC, from DOI: 10.1211/0022357001774101, PMID: 10813545
[12] = not given; remark: listed apart in the source
[13] = method code SF, from DOI: 10.1016/0378-5173(85)90077-8
[14] = method code SF-RC, from PMID: 3346819; settings: pH 7.4
[15] = method code SF-RC, from DOI: 10.1016/j.nucmedbio.2014.03.016, PMID: 24776092; settings: pH 7.4
[16] = method code SF-AS, from DOI: 10.1002/qua.560100722; settings: pH 7.8
[17] = method code SF-HPLC, from DOI: 10.1023/a:1016359301852, PMID: 24271710
[18] = method code SF-RC, from DOI: 10.1002/jps.2600730807, PMID: 6491907
[19] = method code SF-AS, from DOI: 10.1562/0031-8655(2002)076<0127:dlbcop>2.0.co;2, PMID: 12194207; settings: pH 7.3
[20] = method code SF-RC, from PMID: 9639294; settings: pH 7.5
[21] = not given; remark: listed apart in the source
[22] = method code SF, from Moerlein, M.; Dischino, D.; Raymond, N.; Weitl, L.; Welch, J. (1982). Factors affecting the cerebral uptake of gallium complexes. J Labelled Comp Radiopharm, 19(11-12)1421-1422.; settings: pH 7.0
[23] = not given; remark: listed apart in the source
[24] = method code SF-HPLC, from PMID: 8932441; settings: pH 7.4
[25] = method code SF-GLC, from DOI: 10.1021/je990149u
[26] = method code SF, from DOI: 10.1016/s0928-0987(97)10019-7; settings: pH 7.4
[27] = not given; remark: listed apart in the source
[28] = method code SF-AS, from DOI: 10.1021/jm00371a014, PMID: 6716401; settings: pH 7.4
[29] = method code SF-RC, from DOI: 10.1016/0378-5173(86)90124-9
[30] = method code SF-AS, from DOI: 10.1562/0031-8655(2003)0780411sacotn2.0.co2, PMID: 14626671; settings: pH 6.8
[31] = pH 7.4
[32] = not given; remark: listed apart in the source
[33] = not given; remark: listed apart in the source
[34] = method code SF-HPLC, from PMID: 3219139; settings: pH 9.0

## CC1(C)C(OC(=O)CCC(=O)O)CC[C@@]2(C)[C@H]1CC[C@]1(C)[C@H]2C(=O)C=C2[C@@H]3C[C@@](C)(C(=O)O)CC[C@]3(C)CC[C@]21C (stereo not given in full)
[1]
  logD: 2.81

## CO[C@@H](CC[C@H](C)[C@H]1O[C@@]23CC(OC(=O)C[C@H]([C@@H](C)O)OC(=O)C[C@](O)(O2)[C@H](C)CC3(C)C)[C@@H]1C)c1cc(O)ccc1Br
other
  logP: 5.4

## C=CCC(NC(=O)C(Cc1ccccc1)NS(=O)(=O)N1CCOCC1)C(=O)NC(CC1CCCCC1)C(=O)C(F)(F)C(=O)NCC(C)CC (stereo not given)
[2]
  logD: 4.63

## O=C(NCCN(CCNC(=O)c1ccc2cccnc2c1O)CCNC(=O)c1ccc2cccnc2c1O)c1ccc2cccnc2c1O
[3]
  logD: 1

## CCn1c(=O)c2c(nc(C=Cc3ccc(C(=O)OCCOCCOCCOCCOCCOCCOCCOCCOCCOC)c(OC)c3)n2C)n(CC)c1=O
[4]
  logP: 2.8

## COc1cc2oc(-c3ccc(O)cc3)cc(=O)c2c(O)c1[C@@H]1O[C@H](CO)[C@@H](O)[C@H](O)[C@H]1O[C@@H]1O[C@H](CO)[C@@H](O)[C@H](O)[C@H]1O
[5]
  logD: 0.56

## CCC(C(=O)OCc1ccc(COC(=O)C(CC)C(COC(=O)c2ccccc2)Cc2cncn2C)cc1)C(COC(=O)c1ccccc1)Cc1cncn1C (stereo not given)
[6]
  logP: 6.37

## CCCC(=O)O[C@H]1[C@H](C)O[C@@H](O[C@H]2[C@H](N(C)C)[C@@H](O)[C@H](O[C@H]3[C@@H](CC=O)C[C@@H](C)[C@@H](O)/C=C/C=C/C[C@@H](C)OC(=O)C[C@@H](O)[C@@H]3OC)O[C@@H]2C)C[C@@]1(C)OC(=O)CC
[7]
  logP: 3.08

## CCC(=O)OCc1c(CSSCc2cnc(C)c(OC(=O)CC)c2COC(=O)CC)cnc(C)c1OC(=O)CC
[8]
  logD: 2.68

## COc1cc(CN2C(=O)N(Cc3cccc(C(=O)Nc4cnc(C)cn4)c3)C(Cc3ccccc3)C(O)C(O)C2Cc2ccccc2)cc(OC)c1 (stereo not given)
[9]
  logP: 5.59

## COc1ccc(C2(O)OC(=O)C(c3ccc4c(c3)OCO4)=C2Cc2cc(OC)c(OC)c(OCCOCCOCCOCCOCc3cn(C4OC(CO)C(O)C(O)C4F)nn3)c2)cc1 (stereo not given)
[10]
  logP: -0.4

## C[C@]12CC[C@H]3[C@@H](CCC4=CC(=O)CC[C@@]43C)[C@@H]1CC[C@@H]2OC(=O)CCC1CCCC1
[11]
  logP: 4.89

## CC(C)(C)NC(=O)[C@@H]1C[C@@H]2CCCC[C@@H]2CN1C[C@@H](O)[C@H](Cc1ccccc1)NC(=O)[C@H](CC(N)=O)NC(=O)c1ccc2ccccc2n1
[12]
  logP: 3

## CCCCCCCC(=O)OCC(=O)[C@@]1(O)CC[C@H]2[C@@H]3CCC4=CC(=O)CC[C@]4(C)[C@H]3C(=O)C[C@@]21C
[13]
  logP: 4.22

## CC(CNC(=O)c1ccccc1)C(=O)OCC(=O)C12OC(C)(C)OC1CC1C3CCC4=CC(=O)C=CC4(C)C3(F)C(O)CC12C (stereo not given)
[14]
  logD: 2.3

## C[C@H](CCC(=O)NCc1cn(CCF)nn1)[C@H]1CC[C@H]2[C@@H]3[C@H](O)C[C@@H]4C[C@H](O)CC[C@]4(C)[C@H]3CC[C@]12C
[15]
  logD: 1.61

## COc1cccc2c1C(=O)c1c(O)c3c(c(O)c1C2=O)CC(O)(C(C)=O)CC3OC1CC(NC(=O)CNC(=O)CN(C)C)C(O)C(C)O1 (stereo not given)
[16]
  logD: 1.12

## C#CC1(OC(=O)c2ccn(C)c2)CCC2C3CCC4=CC(=O)CCC4C3CCC21C (stereo not given)
[17]
  logP: 4.44

## CC1OC(OC2C(O)CC(OC3C(O)CC(OC4CCC5(C)C(CCC6C5CC(O)C5(C)C(C7COC(=O)C7)CCC65O)C4)OC3C)OC2C)CC(O)C1O (stereo not given)
[18]
  logP: 1.25

## COC(=O)CCC1=C(C)c2cc3cc(C)c(cc4cc(C)c(cc5nc(cc1n2)C(CCC(=O)OC)=C5C)[nH]4)[nH]3
[19]
  logD: 3.95

## CCOC(=O)C1=C(COCCOCCNC(=O)C(C)(C)C)NC(C)=C(C(=O)OC)C1c1cccc(Cl)c1Cl (stereo not given)
[20]
  logD: 2.12

## Cc1ccccc1Nc1nc2ccc(C(=O)NC(CCCCNC(=O)C=Cc3cccnc3)C(=O)NC(CCCC(=O)O)C(=O)NC3(C(N)=O)CCCCC3)cc2[nH]1 (stereo not given)
[21]
  logP: 1.88

## CCCCCCCCN(CCCCN(CCCN(CCCCCCCC)C(=O)c1cccc(O)c1O)C(=O)c1cccc(O)c1O)C(=O)c1cccc(O)c1O
[22]
  logD: 0.51

## CCCN(CCC)C(=O)Cc1c(-c2ccc(OC(=O)NCCc3ccc(O)c(O)c3)cc2)nc2ccc(Cl)cn12
[23]
  logP: 4.3

## CCCCOC(=O)NS(=O)(=O)c1ccccc1-c1ccc(Cn2c(CCC)nc(CC)c2C(C)=O)c(F)c1
[24]
  logD: 1.72

## CCCCCCCCCCOC(=O)c1ccccc1C(=O)OCCCCCCCCCC
[25]
  logP: 9.05

## CC(C)(C)S(=O)(=O)C[C@@H](Cc1ccccc1)C(=O)N[C@@H](Cc1cnc[nH]1)C(=O)N[C@@H](CC1CCCCC1)[C@@H](O)[C@@H](O)C1CC1
[26]
  logD: 2.75

## COc1ccc(CCN(C)CCCC(C#N)(c2cc(OC)c(OC)c(OC)c2)C(C)C)cc1OC (stereo not given)
[27]
  logP: 3.71

## COc1cccc2c1C(=N)c1c(O)c3c(c(O)c1C2=O)C[C@](O)(C(=O)CO)C[C@@H]3O[C@H]1C[C@@H](N2CCOC[C@@H]2C#N)[C@@H](O)[C@@H](C)O1
[28]
  logD: 1.97

## CCCCC[C@H](O)/C=C/[C@@H]1[C@@H](C/C=C\CCCC(=O)OCc2ccccc2)[C@@H](O)C[C@H]1O
[29]
  logP: 4.11

## COc1c(O)c2c(=O)cc(OC)c3c4c(OC)cc(=O)c5c(O)c(NCCN6CCOCC6)c6c(c(c1C(C(C)=O)=C(C)C6)c23)c54
[30]
  logD: 1.15

## CCN1CC(C(O)C(CC2CCCCC2)NC(=O)C(Cc2cscn2)NC(=O)C(CC(=O)N2CCOCC2)Cc2ccccc2)OC1=O (stereo not given)
[31]
  logD: 2.83

## CC1(C)CC[C@]2(C(=O)O)CC[C@]3(C)C(=CC[C@@H]4[C@@]5(C)CC[C@H](O)C(C)(C)[C@@H]5CC[C@]43C)[C@@H]2C1
[32]
  logP: 3.63

## N#CC(CCN1CCC(C(N)=O)(N2CCCCC2)CC1)(c1ccccc1)c1ccccc1
[33]
  logP: 3.91

## COC(=O)C1=C(C)NC(C)=C(C(=O)O[C@@H]2CCCN(Cc3ccccc3)C2)[C@@H]1c1cccc([N+](=O)[O-])c1 (relative stereo)
[34]
  logD: 3.47
